ChEMBL document CHEMBL1201862, “PubChem BioAssay data set” (2004)
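1) Cells in 96-well plates. 2) Compound, 48 h, 5 concentrations. 3) Linear interpolation between surrounding doses. 4) Unreached endpoint = highest concentration. GI50 marks 50% less growth.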 Active and inactive are the calls of the source. Cut-off read from the data, not from the text of the source: active = GI50 up to about 1.1 µM and inactive = higher.

Experiments:
Test in all cases: DTP human tumour cell line panel, 48 h
HCT-15 = tested on: HCT-15
HOP-92 = tested on: HOP-92
DU-145 = tested on: DU-145
UACC-257 = tested on: UACC-257
NCI-H460 = tested on: NCI-H460
OVCAR-4 = tested on: OVCAR-4
NCI-H23 = tested on: NCI-H23
LOX IMVI = tested on: LOX IMVI
NCI-H226 = tested on: NCI-H226
T47D = tested on: T47D
M14 = tested on: M14
RPMI-8226 = tested on: RPMI-8226
HOP-62 = tested on: HOP-62
U-251 = tested on: U-251
SF-268 = tested on: SF-268
MDA-N = tested on: MDA-N
OVCAR-5 = tested on: OVCAR-5
OVCAR-3 = tested on: OVCAR-3
SK-MEL-28 = tested on: SK-MEL-28
HL-60 = tested on: HL-60
Hs-578T = tested on: Hs-578T
PC-3 = tested on: PC-3
HT-29 = tested on: HT-29
SK-MEL-2 = tested on: SK-MEL-2
OVCAR-8 = tested on: OVCAR-8
SW-620 = tested on: SW-620
MDA-MB-435 = tested on: MDA-MB-435
SN12C = tested on: SN12C
SF-539 = tested on: SF-539
SNB-75 = tested on: SNB-75
SR = tested on: SR
KM12 = tested on: KM12
COLO 205 = tested on: COLO 205
HCC 2998 = tested on: HCC 2998
HCT-116 = tested on: HCT-116
MOLT-4 = tested on: MOLT-4
786-0 = tested on: 786-0
NCI-H522 = tested on: NCI-H522
NCI/ADR-RES = tested on: NCI/ADR-RES
A498 = tested on: A498
TK-10 = tested on: TK-10
K562 = tested on: K562
ACHN = tested on: ACHN
BT-549 = tested on: BT-549
Malme-3M = tested on: Malme-3M
CCRF-CEM = tested on: CCRF-CEM
MCF7 = tested on: MCF7
SNB-19 = tested on: SNB-19
A549 = tested on: A549
SF-295 = tested on: SF-295
MDA-MB-231 = tested on: MDA-MB-231
UO-31 = tested on: UO-31
EKVX = tested on: EKVX

**Q.** What does the source list for CCOC(=O)N1CCN(c2c(N)nc(C)nc2O)CC1?
**A.** GI50 (HCT-15): > 100 µM; GI50 (HOP-92): > 100 µM (inactive); GI50 (DU-145): > 100 µM (inactive); GI50 (UACC-257): > 100 µM (inactive); GI50 (NCI-H460): > 100 µM (inactive); GI50 (OVCAR-4): > 100 µM (inactive); GI50 (NCI-H23): > 100 µM (inactive); GI50 (LOX IMVI): > 100 µM (inactive); GI50 (NCI-H226): > 100 µM (inactive); GI50 (T47D): > 100 µM (inactive); GI50 (M14): > 100 µM (inactive); GI50 (RPMI-8226): > 100 µM (inactive); GI50 (HOP-62): > 100 µM (inactive); GI50 (U-251): > 100 µM (inactive); GI50 (SF-268): > 100 µM (inactive); GI50 (MDA-N): > 100 µM (inactive); GI50 (OVCAR-5): > 100 µM (inactive); GI50 (OVCAR-3): > 100 µM (inactive); GI50 (SK-MEL-28): > 100 µM (inactive); GI50 (HL-60): > 100 µM (inactive); GI50 (Hs-578T): > 100 µM (inactive); GI50 (PC-3): > 100 µM (inactive); GI50 (HT-29): > 100 µM (inactive); GI50 (SK-MEL-2): > 100 µM (inactive); GI50 (OVCAR-8): > 100 µM (inactive); GI50 (SW-620): > 100 µM (inactive); GI50 (MDA-MB-435): > 100 µM (inactive); GI50 (SN12C): > 100 µM (inactive); GI50 (SF-539): > 100 µM (inactive); GI50 (SNB-75): > 100 µM (inactive); GI50 (SR): > 100 µM (inactive); GI50 (KM12): > 100 µM (inactive); GI50 (COLO 205): > 100 µM (inactive); GI50 (HCC 2998): > 100 µM (inactive); GI50 (HCT-116): > 100 µM (inactive); GI50 (MOLT-4): > 100 µM (inactive); GI50 (786-0): > 100 µM (inactive); GI50 (NCI-H522): > 100 µM (inactive); GI50 (NCI/ADR-RES): > 100 µM (inactive); GI50 (A498): > 100 µM (inactive); GI50 (TK-10): > 100 µM (inactive); GI50 (K562): > 100 µM (inactive); GI50 (ACHN): > 100 µM (inactive); GI50 (BT-549): > 100 µM (inactive); GI50 (Malme-3M): > 100 µM (inactive); GI50 (CCRF-CEM): > 100 µM (inactive); GI50 (MCF7): > 100 µM (inactive); GI50 (SNB-19): > 100 µM (inactive); GI50 (A549): > 100 µM (inactive); GI50 (SF-295): > 100 µM (inactive); GI50 (MDA-MB-231): > 100 µM (inactive); GI50 (UO-31): > 100 µM (inactive); GI50 (EKVX): > 100 µM (inactive)
